Consider seven compounds from the supplement of paper PMC5722580.

Structures are written as SMILES.

One test deals with KAI3. Briefly: drug sensitivity score (viability inhibition); higher = more sensitive. The conditions noted are these: 72 h; IL2 2.5 ng/ml. Put shortly:
(§1)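 NK cell lines were plated at 3 000 cells/well into 384-well drug plates with 5-8 concentrations across a 10 000-fold range, in complete RPMI with 2.5 ng/ml IL2. Viability was read with CellTiter-Glo after 72 h at 37 °C, 5% CO2. The drug sensitivity score used here is an optimized area under the dose-response curve.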

A further test relates to KHYG-1. The description is as above. Particulars: 72 h; IL2 2.5 ng/ml. In short, it runs like this: as §1
The subject of a further test is NK-92. The description is as above. Particulars: 72 h; IL2 2.5 ng/ml. In short, it runs like this:
as §1

The subject of the next test is NK-YS. The description is as above. The conditions noted are these: 72 h; IL2 2.5 ng/ml. Put shortly:
as §1

The subject of another test is NKL. The test is described as above. Particulars: 72 h; IL2 2.5 ng/ml. In short, it runs like this: as §1
A further test deals with SNK6. Described as above. Particulars: 72 h; IL2 2.5 ng/ml. Put shortly:
as §1

The subject of another test is YT. The test is described as above. The conditions noted are these: 72 h; IL2 2.5 ng/ml. Put shortly:
as §1

For a further test, the system named is HEK293-SIE STAT3 WT. As to the kind of experiment: drug sensitivity score (inhibition of STAT3 luciferase reporter); higher = stronger inhibition. Particulars: 6 h; STAT3: WT; IL6 100 ng/ml. In short, it runs like this: (§2)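 Scores are optimized areas under reporter-inhibition dose-response curves. They come from HEK293 cells with a STAT3-driven sis-inducible element luciferase reporter and lentivirally introduced wild-type or mutant STAT3, plated at 10 000 cells/well in 384-well plates, with IL6 (100 ng/ml) given to wild-type cells only. After 6 h with drug at 5-8 concentrations across a 10 000-fold range, luciferase was read with ONE-Glo, and results from two experiments were averaged.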
In general terms: Reporter assays use an easily measured gene product as a stand-in for the process of interest.

The subject of a further test is HEK293-SIE STAT3 Y640F. The test is described as above. Particulars: 6 h; IL6 0 ng/ml. In short, it runs like this: as §2

Take `Cc1[nH]c2ccccc2c1CCNCc1ccc(/C=C/C(=O)NO)cc1` [Panobinostat]: the drug sensitivity score in the test with KAI3 stood at 21.9 DSS; in the test on KHYG-1 it was 23.1 DSS; with NK-92, 21.8 DSS; in the test on NK-YS it was 23 DSS; in the test with NKL it was 24.2 DSS; with SNK6, 21.9 DSS. For the same compound, the results for the drug sensitivity score with YT, in the test on HEK293-SIE STAT3 WT and in the test on HEK293-SIE STAT3 Y640F were 18.8 DSS, 3.75 DSS and 4.7 DSS, respectively.

For the compound `COc1ccc(-c2ccc3c(N4CCOC[C@@H]4C)nc(N4CCOC[C@@H]4C)nc3n2)cc1CO` [AZD8055], the drug sensitivity score with KAI3 was 14.1 DSS; with KHYG-1 it was 16.7 DSS; with NK-92 it was 16.3 DSS; in the test on NK-YS, 19.6 DSS; in the test on NKL, 23.3 DSS; in the test with SNK6, 14.9 DSS. Also, the drug sensitivity score was found to be 16.7 DSS in the test with YT, 20.2 DSS in the test with HEK293-SIE STAT3 WT and 18.6 DSS in the test on HEK293-SIE STAT3 Y640F.

As to `Cc1c2oc3c(C)ccc(C(=O)N[C@@H]4C(=O)N[C@H](C(C)C)C(=O)N5CCC[C@H]5C(=O)N(C)CC(=O)N(C)[C@@H](C(C)C)C(=O)O[C@@H]4C)c3nc-2c(C(=O)N[C@@H]2C(=O)N[C@H](C(C)C)C(=O)N3CCC[C@H]3C(=O)N(C)CC(=O)N(C)[C@@H](C(C)C)C(=O)O[C@@H]2C)c(N)c1=O` [Dactinomycin], the drug sensitivity score in the test on KAI3 is 23.8 DSS; in the test on KHYG-1, 29.3 DSS; in the test on NK-92 it was 16.5 DSS; with NK-YS, 38.2 DSS; in the test on NKL it was 36.5 DSS; with SNK6 it was 32.2 DSS. The drug sensitivity score with YT is 35 DSS; in the test with HEK293-SIE STAT3 WT, 18.9 DSS; in the test with HEK293-SIE STAT3 Y640F, 18.4 DSS.

On to `CS(=O)(=O)N1CCN(Cc2cc3nc(-c4cccc5[nH]ncc45)nc(N4CCOCC4)c3s2)CC1` [Pictilisib], for which the drug sensitivity score in the test on KAI3 was 2.33 DSS; with KHYG-1, 3.56 DSS; with NK-92, 7.68 DSS; in the test with NK-YS, 6.48 DSS; with NKL it was 6.67 DSS; with SNK6 it was 1.94 DSS. The drug sensitivity score with YT was found to be 5.04 DSS; with HEK293-SIE STAT3 WT, 4.5 DSS; in the test with HEK293-SIE STAT3 Y640F, 5 DSS.

Turning to `O=S(=O)(c1cccc2cnccc12)N1CCCNCC1` [Fasudil], the drug sensitivity score came to 2.61 DSS in the test on KAI3; 1.2 DSS in the test with KHYG-1; 2.52 DSS in the test with NK-92; 0.1 DSS in the test on NK-YS; 0.632 DSS with NKL; 0.11 DSS in the test on SNK6. Moreover, the drug sensitivity score with YT was determined as 1.44 DSS; in the test with HEK293-SIE STAT3 WT it was 1.9 DSS; in the test on HEK293-SIE STAT3 Y640F it was 0 DSS.

In the case of `C[C@@]1(C(=O)Nc2ccc(F)nc2)CCCN1c1nc(Nc2cc(C3CC3)n[nH]2)c2cccn2n1`, the drug sensitivity score in the test on KAI3 is 4.45 DSS; in the test with KHYG-1 it was 7.86 DSS; with NK-92, 5.6 DSS; in the test on NK-YS, 11.1 DSS; with NKL, 2.75 DSS; in the test with SNK6 it was 10.9 DSS. Moreover, the drug sensitivity score with YT is 5.74 DSS; with HEK293-SIE STAT3 WT, 1.95 DSS; with HEK293-SIE STAT3 Y640F it was 8.23 DSS.

`COc1ccc(-c2cc3c(C)nc(N)nc3n([C@H]3CC[C@H](OCCO)CC3)c2=O)cn1`: the drug sensitivity score in the test on KAI3 was 9.49 DSS; in the test with KHYG-1, 13.9 DSS; with NK-92, 19.2 DSS; in the test with NK-YS it was 15 DSS; with NKL, 15.4 DSS; with SNK6, 5.96 DSS. Besides, the drug sensitivity score came out at 16.1 DSS in the test with YT, 14.9 DSS in the test on HEK293-SIE STAT3 WT and 9.1 DSS in the test with HEK293-SIE STAT3 Y640F.
